Test results taken from PubChem BioAssay (NCI).
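Results reflect a 48-hour exposure of cells in 96-well plates to compound at five concentrations. GI50 is the concentration that inhibits growth by half. TGI: total growth inhibition.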

What was measured:
Assay in all cases: inhibition of tumour cell growth, NCI panel, 48 h
786-0 renal = tested on: 786-0 renal
ACHN renal = tested on: ACHN renal
HCT-15 colon = tested on: HCT-15 colon
IGROV1 ovarian = tested on: IGROV1 ovarian
RPMI-8226 leukemia = tested on: RPMI-8226 leukemia
SF-539 CNS = tested on: SF-539 CNS
SK-MEL-5 melanoma = tested on: SK-MEL-5 melanoma
SNB-19 CNS = tested on: SNB-19 CNS
SW-620 colon = tested on: SW-620 colon
UACC-257 melanoma = tested on: UACC-257 melanoma

Row | Compound | GI50 (786-0 renal) [µM] | TGI (786-0 renal) [µM] | GI50 (ACHN renal) [µM] | TGI (ACHN renal) [µM] | GI50 (HCT-15 colon) [µM] | TGI (HCT-15 colon) [µM] | GI50 (IGROV1 ovarian) [µM] | TGI (IGROV1 ovarian) [µM] | GI50 (RPMI-8226 leukemia) [µM] | TGI (RPMI-8226 leukemia) [µM] | GI50 (SF-539 CNS) [µM] | TGI (SF-539 CNS) [µM] | GI50 (SK-MEL-5 melanoma) [µM] | TGI (SK-MEL-5 melanoma) [µM] | GI50 (SNB-19 CNS) [µM] | TGI (SNB-19 CNS) [µM] | GI50 (SW-620 colon) [µM] | TGI (SW-620 colon) [µM] | GI50 (UACC-257 melanoma) [µM] | TGI (UACC-257 melanoma) [µM]
1 | COc1ccc(/C(=C/c2ccc3ccccc3c2)c2nn[nH]n2)cc1OC | 5.72 | > 100 | 11.3 | > 100 | 2.92 | > 100 | 4.23 | > 100 | 4.02 | > 100 | 2.38 | 7.94 | 4.68 | 23.8 | 7.84 | > 100 | 1.36 | > 100 | 56.6 | > 100
2 | Cc1ccc(NC(=O)CCc2nnc3s/c(=C\c4cccc([N+](=O)[O-])c4)c(=O)n23)cc1 | – | > 100 | – | > 100 | – | > 100 | – | > 100 | – | > 100 | – | > 100 | – | > 100 | – | > 100 | – | 38.6 | – | > 100
3 | c1ccc(COCC[P+](c2ccccc2)(c2ccccc2)c2ccccc2)cc1 | 3.49 | 15.6 | 4.56 | 23.5 | 14.2 | > 100 | 1.08 | 11.9 | 0.242 | 1.9 | 2.4 | 14.5 | 0.396 | 1.61 | 1.03 | 10.7 | 1.83 | 37.7 | 0.378 | 3.77
4 | Cc1cc(Cl)ccc1NC(=O)CC1SC(=NC(=O)c2ccccc2Cl)NC1=O (stereo not given) | – | 35.7 | – | 30.8 | – | 33.1 | – | > 100 | – | 38.4 | – | 35.4 | – | 95.7 | – | > 100 | – | 32.3 | – | 38.6
5 | CS(=O)(=O)O[C@H]1C(=O)N(c2cc3c4ccccc4ccc3c3ccccc23)[C@@H]1c1ccccn1 | 0.348 | 31.7 | 0.877 | > 100 | 0.419 | > 100 | 2.14 | > 100 | 0.467 | > 100 | 0.316 | 2.96 | 0.3 | 3.35 | 0.749 | > 100 | 0.401 | > 100 | 16.9 | > 100
6 | O=C(/C=C\c1cc(Br)ccc1O)/C=C/c1cc(Br)ccc1O | 1.23 | 2.55 | 0.661 | 2.05 | 0.384 | 1.76 | 1.6 | 3.62 | 0.3 | 1.4 | 1.47 | 3.35 | 0.426 | 1.66 | 1.03 | 2.55 | 0.379 | 1.61 | 1.54 | 4.09
7 | Cc1ccc(S(=O)(=O)OCC(=O)Nc2ccc(C(=O)O)c(O)c2)cc1 | 30.5 | 96.7 | 43.1 | 159 | 38.8 | 155 | 18 | 92.3 | 138 | 346 | 24.7 | 72.2 | 27 | 82.6 | 66.5 | 242 | 43.7 | 145 | 36.7 | 200
8 | O=C(CCC(=O)Nc1ccc(Cl)cc1)CC(=O)c1ccc2ccccc2c1 | – | > 100 | – | > 100 | – | > 100 | – | > 100 | – | > 100 | – | > 100 | – | > 100 | – | > 100 | – | > 100 | – | > 100
9 | CCCCCCCCCCCCNC(=O)N[C@H](C(=O)N[C@H]1/C=C/CCNC(=O)/C=C/[C@H](C)NC1=O)C(C)C | 0.276 | 5.39 | 1.87 | > 100 | 2.76 | > 100 | 0.06 | 2.24 | 0.0309 | 1 | 0.0805 | 0.263 | 0.163 | 0.39 | 0.0647 | 15 | 0.0504 | 1.34 | 0.269 | 1.85
10 | CON=C1C[C@]2(C[C@@H]3C[C@@H](C/C=C(\C)C[C@@H](C)/C=C/C=C4\CO[C@@H]5[C@H](O)C(C)=C[C@@H](C(=O)O3)[C@]45O)O2)O[C@H](/C(C)=C/C(C)C)[C@H]1C | 14.2 | 28.4 | 15.2 | 29.3 | 14.9 | 30.9 | 11.5 | 23.9 | 4.23 | 53.6 | 20.4 | 36.9 | 15.4 | 29.1 | 15.7 | 35.3 | 11.8 | 25.3 | 16.9 | 32.9
11 | O=C(O)c1ccc(NCc2nc3ccccc3[nH]2)cc1 | > 100 | > 100 | > 100 | > 100 | > 100 | > 100 | > 100 | > 100 | > 100 | > 100 | > 100 | > 100 | > 100 | > 100 | > 100 | > 100 | > 100 | > 100 | > 100 | > 100
12 | NS(=O)(=O)c1ccc(N=Nc2c(O)[nH]c3ccc(C(=O)NCCc4cnc[nH]4)cc23)cc1 | > 25 | > 25 | > 25 | > 25 | > 25 | > 25 | > 25 | > 25 | > 25 | > 25 | > 25 | > 25 | > 25 | > 25 | > 25 | > 25 | > 25 | > 25 | > 25 | > 25
13 | COc1ccc(Cc2cc(OC)c(OC)c(OC)c2)cc1 | – | > 100 | – | > 93.3 | – | > 30.9 | – | > 100 | – | 39.1 | – | 1.76 | – | 21.2 | – | > 100 | – | > 100 | – | > 71.8
14 | CCOC(=O)C1=C(C)NC(C)=C(C(=O)OCCNC(=O)c2ccc(N=[N+]=[N-])cc2)C1c1ccccc1C(F)(F)F (stereo not given) | – | 21.5 | – | 21.5 | – | 21.5 | – | 21.5 | – | 18.9 | – | > 31.6 | – | 12.7 | – | 21.5 | – | 21.5 | – | 21.5
